Source: patent publication US6737397B1, “Control of cancer growth through the interaction of [MET5]-enkephalin and the zeta receptor” (The Penn State Research Foundation, priority 1996, dated 2004)

Tests used:
[1] = system: HT-29 human colon cancer cells; experiment: HT-29 human colon cancer xenografts in nude mice treated with OGF and/or naloxone
[2] = system: HT-29 cells; experiment: Growth assay (cell counts) of HT-29 human colon cancer cells in culture; type: cell-based; conditions: 48 hr
Method: In some examples, cultures of HT-29 cells were maintained in McCoy's 5A media without fetal calf serum.
(§1) Cells were seeded at equivalent amounts into 75 cm^2 flasks or into 9.6 cm^2 wells (6-well plates, Falcon) and were counted 24 hr later to determine plating efficiency. Drugs or sterile water were added beginning 24 hr after seeding (=0 hours) and both media and drugs were changed daily. All drugs were prepared in sterile water and dilutions represent final concentrations of the compounds. At appropriate times, cells were harvested with 0.05% trypsin/0.53 mM EDTA, centrifuged, and counted with a hemacytometer at 200×. Cell viability was determined by trypan blue staining. At least 2 aliquots/flask or well were counted and 2 flasks or wells/time point/treatment group were sampled.

[3] = system: COLO 205 cells; experiment: Growth assay (cell counts) of COLO 205 human colon cancer cells; type: cell-based
Method: (§2) HT-29, WiDr, and COLO 205 cell lines were obtained from the American Type Culture Collection (Rockville, Md.). HT-29 cells were grown in McCoy's 5A media (modified), WiDr cells in Minimum Essential Media, and COLO 205 cells in RPMI 1640 media; all media contained 10% fetal calf serum, 2 mM […], 1.2% sodium bicarbonate and antibiotics (11 Units/ml penicillin, 10 μg/ml streptomycin, 10 μg/ml neomycin) in a humidified atmosphere of 7% CO2/93% air at 37° C. In some examples, cultures of HT-29 cells were maintained in McCoy's 5A media without fetal calf serum.
as §1
(§3) To examine the ubiquity of opioid activity with respect to colon cancer, two other colon cancer cell lines were investigated: COLO 205 and WiDr.

[4] = system: WiDr cells; experiment: Growth assay (cell counts) of WiDr human colon cancer cells; type: cell-based
Method: as §2, §1, §3

C=CCN1CC[C@]23c4c5ccc(O)c4O[C@H]2C(=O)CC[C@@]3(O)[C@H]1C5 [naloxone]
latencies of palpable, visible, or measurable tumors or incidence of cancer versus control mice ([1]; 5 mg/kg OGF with 10 mg/kg naloxone, or 10 mg/kg naloxone alone): No differences | Latency for measurable tumor appearance, days, range ([1]; 10 mg/kg Nal daily): (10-16) days | Latency for palpable tumor ([1]; 10 mg/kg Nal daily): 9.3 ± 1.4 days | Latency for visible tumor ([1]; 10 mg/kg Nal daily): 10.3 ± 1.4 days | No. of mice with tumors 21 days after inoculation ([1]; 10 mg/kg Nal daily): 4/5 | No. of mice with tumors 50 days after inoculation ([1]; 10 mg/kg Nal daily): 4/5 | tumor volume ([1]; 50 days after inoculation, 10 mg/kg naloxone alone): 1,494±517 mm^3 | effect of concomitant naloxone on [Met5]-enkephalin inhibition of cell number ([2]; 10^−6 M each): blocked the inhibitory effects | effect on cell growth, alone ([2]; 10^−6 M): no effect on cell growth | influence on growth, alone ([3]; 10^−6 M): no influence on growth | effect of naloxone on suppressive effects of [Met5]-enkephalin on growth ([3]; 10^−6 M each): eliminated | influence on growth, alone ([4]; 10^−6 M): no influence on growth | effect of naloxone on suppressive effects of [Met5]-enkephalin on growth ([4]; 10^−6 M each): eliminated
